From ChEMBL document CHEMBL3045258, “Benzimidazole, Benzoxazole and Benzothiazole Derivatives as 5HT2B Receptor Ligands. Synthesis and Preliminary Pharmacological Evaluation” (Med Chem Res, 2005)
The source made the active and inactive calls. The calls are words filed in the database; no cut-off is given here.

How the values were obtained:
[1] = molecular target: 5-hydroxytryptamine receptor 2B (Rattus norvegicus) (UniProt P30994); experiment: Non-surmountable antagonist activity at 5-HT2B in Rattus norvegicus CD (rat) stomach fundus sections assessed as inhibition of serotonin-induced contractile response after 1 hr
5-hydroxytryptamine receptor 2B (Rattus norvegicus), sequence (P30994 whole entry): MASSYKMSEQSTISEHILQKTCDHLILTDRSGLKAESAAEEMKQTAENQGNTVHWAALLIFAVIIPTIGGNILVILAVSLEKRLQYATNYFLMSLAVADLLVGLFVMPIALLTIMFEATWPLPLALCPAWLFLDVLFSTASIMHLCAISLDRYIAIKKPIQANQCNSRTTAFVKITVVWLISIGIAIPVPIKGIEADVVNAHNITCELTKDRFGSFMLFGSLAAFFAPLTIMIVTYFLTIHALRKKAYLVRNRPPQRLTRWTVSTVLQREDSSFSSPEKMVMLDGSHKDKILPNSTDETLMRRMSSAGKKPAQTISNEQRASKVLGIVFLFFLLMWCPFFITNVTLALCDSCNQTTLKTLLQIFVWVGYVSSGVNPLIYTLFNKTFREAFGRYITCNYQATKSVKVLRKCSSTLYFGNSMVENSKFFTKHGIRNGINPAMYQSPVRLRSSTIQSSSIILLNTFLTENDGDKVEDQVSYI

[2] = molecular target: T1, 5-hydroxytryptamine receptor 2C (Rattus norvegicus) (UniProt P08909); experiment: Displacement of [3H]mesulergine from 5-HT2C in Rattus norvegicus CD (rat) […] sections at 10 uM after 1 hr
T1 sequence (whole entry): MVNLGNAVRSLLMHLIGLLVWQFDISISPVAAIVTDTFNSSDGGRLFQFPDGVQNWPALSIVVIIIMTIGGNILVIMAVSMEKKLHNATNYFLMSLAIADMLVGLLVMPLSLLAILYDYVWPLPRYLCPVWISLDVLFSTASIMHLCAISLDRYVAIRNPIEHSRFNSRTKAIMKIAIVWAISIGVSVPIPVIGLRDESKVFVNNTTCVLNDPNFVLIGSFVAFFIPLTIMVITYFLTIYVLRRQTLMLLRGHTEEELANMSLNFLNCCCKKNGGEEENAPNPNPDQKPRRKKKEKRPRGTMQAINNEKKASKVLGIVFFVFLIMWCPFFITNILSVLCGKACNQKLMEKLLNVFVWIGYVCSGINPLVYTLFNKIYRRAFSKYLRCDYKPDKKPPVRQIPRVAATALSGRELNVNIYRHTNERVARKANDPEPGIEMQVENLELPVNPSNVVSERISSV

[3] = molecular target: 5-hydroxytryptamine receptor 2A (Rattus norvegicus) (UniProt P14842); experiment: Displacement of [3H]ketansarin from 5-HT2A in Rattus norvegicus CD (rat) […] sections at 10 uM after 1 hr
5-hydroxytryptamine receptor 2A (Rattus norvegicus), sequence (P14842 whole entry): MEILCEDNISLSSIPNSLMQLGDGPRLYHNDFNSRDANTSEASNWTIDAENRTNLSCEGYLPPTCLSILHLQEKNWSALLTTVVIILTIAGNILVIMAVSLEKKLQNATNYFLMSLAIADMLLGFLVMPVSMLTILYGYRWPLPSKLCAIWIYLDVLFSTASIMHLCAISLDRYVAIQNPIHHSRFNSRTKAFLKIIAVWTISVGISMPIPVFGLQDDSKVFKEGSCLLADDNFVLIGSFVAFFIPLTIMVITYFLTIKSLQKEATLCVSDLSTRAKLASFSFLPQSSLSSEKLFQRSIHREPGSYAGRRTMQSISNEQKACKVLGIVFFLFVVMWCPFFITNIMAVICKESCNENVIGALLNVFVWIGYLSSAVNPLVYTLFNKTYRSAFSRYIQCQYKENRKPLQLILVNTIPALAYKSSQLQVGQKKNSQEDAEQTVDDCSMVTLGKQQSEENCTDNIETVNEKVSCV

[4] = molecular target: 5-hydroxytryptamine receptor 2B (Rattus norvegicus) (UniProt P30994); experiment: Binding affinity to 5-HT2B in Rattus norvegicus CD (rat) stomach fundus sections after 1 hr
[5] = molecular target: 5-hydroxytryptamine receptor 2B (Rattus norvegicus) (UniProt P30994); experiment: Antagonist activity at 5-HT2B in Rattus norvegicus CD (rat) stomach fundus sections assessed as inhibition of serotonin-induced contractile response at 10 '-5 M after 1 hr

Row | Structure (SMILES) | inhibition [1] | Activity [2] | Activity [3] | pKb [4] | inhibition [5]
1 | OC(Cc1ccccc1)c1cc2ccccc2[nH]1 (configuration not stated) | inactive | < 5% | < 5% | < 5 | 
2 | c1ccc(CCc2nc3ccccc3s2)cc1 | inactive | < 5% | < 5% | 5.15 | 
3 | OC(Cc1ccccc1)c1nc2ccccc2o1 (configuration not stated) | inactive | < 5% | < 5% | < 5 | inactive
4 | O/N=C(\Cc1ccccc1)c1cc2ccccc2[nH]1 | inactive | < 5% | < 5% | < 5 | 
5 | COc1ccc(CC(O)c2nc3ccccc3[nH]2)cc1OC (configuration not stated) | inactive | < 5% | < 5% | < 5 | inactive
6 | CCNCc1nc2ccccc2[nH]1 | inactive | < 5% | < 5% | < 5 | inactive
7 | NC(Cc1ccccc1)c1nc2ccccc2[nH]1 (configuration not stated) | inactive | < 5% | < 5% | < 5 | inactive
8 | O=C(Cc1ccccc1)c1cc2ccccc2[nH]1 | inactive | < 5% | < 5% | 5.58 | 
9 | COc1ccc(CC2NCCc3c2[nH]c2ccccc32)cc1OC (configuration not stated) |  |  |  | 9.17 | 
10 | c1ccc(CCc2nc3ccccc3[nH]2)cc1 | inactive | < 5% | < 5% | 5.29 | 
11 | COc1ccc(CCc2nc3ccccc3o2)cc1OC | inactive | < 5% | < 5% | 5.59 | 
12 | CCNC(Cc1ccccc1)c1nc2ccccc2[nH]1 (configuration not stated) | inactive | < 5% | < 5% | 5.84 | 
13 | COc1ccc(CCc2nc3ccccc3[nH]2)cc1OC | inactive | < 5% | < 5% | 5.84 | 
14 | NCc1nc2ccccc2[nH]1 | inactive | < 5% | < 5% | < 5 | inactive
15 | c1ccc(CCc2nc3ccccc3o2)cc1 | inactive | < 5% | < 5% | 5.23 | 
16 | COc1ccc(CC(O)c2nc3ccccc3s2)cc1OC (configuration not stated) | inactive | < 5% | < 5% | 5.16 | 
17 | COc1ccc(CC(O)c2nc3ccccc3o2)cc1OC (configuration not stated) | inactive | < 5% | < 5% | 5.1 | 
18 | OC(Cc1ccccc1)c1nc2ccccc2s1 (configuration not stated) | inactive | < 5% | < 5% | 5.25 | 
19 | OC(Cc1ccccc1)c1nc2ccccc2[nH]1 (configuration not stated) | inactive | < 5% | < 5% | 5.16 | 
20 | NC(Cc1ccccc1)c1cc2ccccc2[nH]1 (configuration not stated) | inactive | < 5% | < 5% | < 5 | 
21 | COC(=O)[C@@H]1[C@H]2C[C@H]3c4[nH]c5ccccc5c4CCN3C[C@@H]2CC[C@@H]1O |  |  |  | 7.74 | 
22 | COc1ccc(CCc2nc3ccccc3s2)cc1OC | inactive | < 5% | < 5% | 5.61 | 
23 | NC(Cc1ccccc1)c1nc2ccccc2s1 (configuration not stated) | inactive | < 5% | < 5% | < 5 | inactive
